This is an account of results in article PMC10905675, “INX-315, a Selective CDK2 Inhibitor, Induces Cell Cycle Arrest and Senescence in Solid Tumors” (Cancer Discovery, 2023).

The test system of data set [1] is palbociclib-resistant MCF7 cells. The data set is described as follows: CellTiter Glo viability assay. It counts as cell-based. Particulars: Homo sapiens, MCF7, Supp Fig S9B, CDK4/6 inhibitor monotherapy; read-out: IC50. Here is the method:
(§1) An exception to this is MCF7PDRCl5-1 cells which were first cultured for 5 days without palbociclib then plated as described. MCF7PDRCl5-1 cells were treated with either a dose curve of the indicated CDK4/6i or a dose curve of INX-315 + 1 µmol/L of the indicated CDK4/6i. Cell viability was determined using the CellTiter-Glo assay (Promega, G9241) following manufacturer's instructions. Plates were processed on either BioTek Synergy2 multi-mode (Agilent) or ClarioSTAR (BMG Labtech) plate readers. T47D and MCF7 cells were seeded into […] plates using BioTek 406 (Aglient) and treated with a ten-point dose concentration from 10 µmol/L to 0.3 nmol/L of INX-315 for 2× doubling times. Plates were fixed with 4% PFA and stained with Rhodamine-Phalloidin (Bio-Trend, 00027) and DAPI (5 mg/mL, Invitrogen, catalog no. D1306). Plates were imaged using CellInsight CX7 LZR and DAPI-positive cells were counted using Thermo Fisher Scientific HCS Studio Cell Analysis Software.
A general note: Cellular ATP, detected with luciferase, serves as a proxy for viable cell number.

Data set [2] relates to all CCNE1-amplified lines. The data set is described as follows: CellTiter Glo viability assay. The format is cell-based. Particulars: all CCNE1-amplified lines, INX-315 vs PF-07104091, 6 days. The method, then: as §1
The next data set deals with MCF7 Fulv-resistant. The data set is described as follows: Cell number dose-response. The format is cell-based. Particulars: Supp Fig S7D, Fulv-Resistant in 100 nM fulvestrant, 7 days; read-out: IC50 (nM) MCF7.
From the text: (§2) MCF7 abemaciclib-resistant cells were generated by continuous treatment with abemaciclib at a concentration of 250 nmol/L for 72 days, followed by 500 nmol/L for 48 days. MCF7 fulvestrant-resistant cells were generated by continuous treatment of 100 nmol/L Fulvestrant for 125 days. MCF7 abemaciclib/fulvestrant-resistant cells were generated by treating abemaciclib-resistant cells continuously with 100 nmol/L fulvestrant for 137 days. T47D abemaciclib-resistant lines were generated by continuous treatment with abemaciclib at a concentration of 500 nmol/L for 73 days. T47D fulvestrant–resistant cells were generated by continuous treatment with 100 nmol/L fulvestrant for 68 days. T47D abemaciclib/fulvestrant-resistant cells were generated by treating abemaciclib-resistant cells with continuous treatment of 100 nmol/L Fulvestrant for 60 days. Resistant cell lines were cultured in medium containing drug(s) that the line is resistant to and further authenticated using short tandem repeat profiling.
as §1

For another data set, the system named is MCF7 Abema-resistant. The data set is described as follows: Cell number dose-response. It counts as cell-based. Particulars: Supp Fig S7D, Abema-Resistant in 500 nM abemaciclib, 7 days; read-out: IC50 (nM) MCF7.
From the text: as §2, §1

For a further data set, the system named is MCF7 Parent. The data set is described as follows: Cell number dose-response. Particulars: Supp Fig S7D, 7 days, read-out: IC50 (nM) MCF7. The format is cell-based.
From the text: as §2, §1

In data set [3] the target is T1, CDK9/cyclin T1 (Homo sapiens, UniProt P50750).
T1 construct: purchased Carna 04-110
Description: NanoBRET live cell target engagement. Particulars: Supp Fig S1E, NanoBRET; read-out: Intracellular IC50 (nM) CDK9/T1. The format is binding. Here is the method:
(§3) Reaction Bio (Malvern, PA) conducted NanoBRET assays utilizing Promega NanoLuc technology with two replicates per experiment. The CDK2/E1 and CDK1/B1 values are the average of two separate experiments.
(§4) HEK293 cells were transfected using Opti-MEM without serum containing ratios of 9.0 µg/mL of Transfection Carrier DNA, 1.0 µg/mL of NanoLuc fusion vector DNA and 1 mL of Opti-MEM without phenol red. 30 µL of FuGENE HD transfection reagent was added to each milliliter of DNA mixture to form lipid:DNA complex. After incubation for 20 minutes at room temperature, 1 part lipid/DNA complex was added to 20 parts HEK293 cells in suspension. Cells were then plated and incubated overnight before being trypsinized and resuspended at 2 × 10^5 cells/mL. NanoBRET tracer reagent was added to cells at a ratio of 1 part tracer to 20 parts cell suspension. Cells were added to a 384-well plate and incubated for 1 hour. Plates were removed and incubated at room temperature for 15 minutes to equilibrate before 3x complete substrate plus inhibitor was added. After 2–3 minutes of incubation at room temperature, donor and acceptor wavelengths (460 nm and 600 nm, respectively) were measured using an Envision 2104 plate reader.

Data set [4] deals with T2, CDK1/cyclin B1 (Homo sapiens, UniProt P06493).
T2 construct: purchased Millipore 14-450M
The data set is described as follows: NanoBRET live cell target engagement. The format is binding. Particulars: Supp Fig S1E, NanoBRET; read-out: Intracellular IC50 (nM) CDK1/B1. Here is the method: as §3, §4
For orientation: Bioluminescence resonance energy transfer reports proximity on the nanometre scale.

Another data set concerns the target T3, CDK6/cyclin D3 (Homo sapiens, UniProt Q00534).
T3 construct: purchased Carna 04-107
The data set is described as follows: Nanosyn biochemical assay. Particulars: value (SEM). The method, then: (§5) Compounds were tested in kinase assays (Nanosyn, Inc.). The assays were completed using microfluidic kinase detection technology (Caliper Assay Platform). The compounds were tested in 12-point dose–response format in singlicate at the Km for ATP. Phosphoacceptor substrate peptide concentration used was 1 µmol/L and staurosporine was used as the reference compound for all assays. Details for individual Nanosyn assays performed are provided here: […]

Data set [5] addresses T1, CDK9/cyclin T1. The data set is described as follows: Nanosyn biochemical assay. Particulars: value (SEM). The method, then: as §5
In data set [6] the target is T2, CDK1/cyclin B1. Description: Nanosyn biochemical assay. Particulars: value (SEM). The method, then:
as §5

A short description of data set [7]: Microsomal stability assay. The format is in vitro ADME. Here is the method:
Microsomal stability was determined by Absorption Systems (Exton, PA). INX-315 was tested in mixed-gender human liver microsomes (Lot #1010420), male Sprague-Dawley rat liver microsomes (Lot #1910100), male CD-1 mouse liver microsomes (Lot #2010017), and male beagle dog liver microsomes (Lot #2010046) were purchased from XenoTech/BioIVT by Absorption Systems. The reaction mixture, minus NADPH, was prepared as described below. The test article was added into the reaction mixture at a final concentration of 1 µmol/L. The control compound, testosterone, was run simultaneously with the test article in a separate reaction. The reaction mixture (without cofactor) was equilibrated in a shaking water bath at 37°C for 5 minutes. The reaction was initiated by the addition of the cofactor, and the mixture was incubated in a shaking water bath at 37°C. Aliquots (100 µL) were withdrawn at 0, 10, 20, 30, and 60 minutes. Test article and testosterone samples were immediately combined with 400 µL of ice-cold 50/50 acetonitrile (ACN)/H2O containing 0.1% formic acid and internal standard to terminate the reaction. The samples were then mixed and centrifuged to precipitate proteins. All samples were assayed by LC-MS/MS using electrospray ionization. The peak area response ratio (PARR) of analyte to internal standard at each time point was compared to the PARR at time 0 to determine the percent remaining at each time point. Half-lives and clearance were calculated using GraphPad software (RRID:SCR_002798), fitting to a single-phase exponential decay equation.

A further data set deals with T4, CDK5 (Homo sapiens, UniProt Q00535).
T4 construct: purchased ThermoFisher PV3000
Description: Nanosyn biochemical assay. Particulars: ATP at Km, value (SEM), read-out: IC50 (nmol/L) CDK5. The method, then: as §5

A further data set deals with T5, CDK5/p25 (Homo sapiens, UniProt Q00535).
T5 construct: purchased BPS 40105
The data set is described as follows: Nanosyn biochemical assay. Particulars: ATP at Km, value (SEM), read-out: IC50 (nmol/L) CDK5/p25. The method, then: as §5

The next data set deals with T6, CDK7 (Homo sapiens, UniProt P50613).
T6 construct: purchased Carna 04-108
Description: Nanosyn biochemical assay. Particulars: ATP at Km, value (SEM), read-out: IC50 (nmol/L) CDK7. The method, then:
as §5

A further data set concerns the target T7, CDK2/cyclin A2 (Homo sapiens, UniProt P24941).
T7 construct: purchased Millipore 14-448
Description: Nanosyn biochemical assay. Particulars: ATP at Km, value (SEM), read-out: IC50 (nmol/L) CDK2/cyclin A2. The method, then: as §5

The next data set concerns the target T8, CDK2/cyclin E1 (Homo sapiens, UniProt P24941).
T8 construct: purchased Millipore 14-475
Description: Nanosyn biochemical assay. Particulars: Nanosyn, ATP at Km; value (SEM); read-out: IC50 (nmol/L) CDK2/cyclin E1. Here is the method: as §5

A further data set deals with T9, CDK4/cyclin D1 (Homo sapiens, UniProt P11802).
T9 construct: purchased ThermoFisher PV4400
Description: Nanosyn biochemical assay. Particulars: ATP at Km, value (SEM), read-out: IC50 (nmol/L) CDK4/cyclin D1. Here is the method:
as §5

In a further data set the target is T10, CDK3/cyclin E1 (Homo sapiens, UniProt Q00526).
T10 construct: purchased BPS 40103
The data set is described as follows: Nanosyn biochemical assay. Particulars: ATP at Km, value (SEM), read-out: IC50 (nmol/L) CDK3/cyclin E1. The method, then:
as §5

[8] abbreviates: both sexes, human, liver microsomes, 1 µmol/L, 60 min incubation, read-out: Half-life.
The mark [9] stands for this setting: male, CD-1, liver microsomes, Mouse microsomes, 60 min incubation.
Setting [10] is: male, Sprague-Dawley, rat, liver microsomes, 1 µmol/L, 60 min incubation, read-out: Half-life.
The mark [11] stands for this setting: male, beagle, dog, liver microsomes, 1 µmol/L, 60 min incubation, read-out: Half-life.
The mark [12] stands for this setting: ATP at Km, read-out: IC50 (nmol/L) CDK6/cyclin D3.
Where [13] appears, read: ATP at Km, read-out: IC50 (nmol/L) CDK1/cyclin B1.

Like-named read-outs stand apart in the source and are kept apart here.

T3 sequence (Q00534 whole entry): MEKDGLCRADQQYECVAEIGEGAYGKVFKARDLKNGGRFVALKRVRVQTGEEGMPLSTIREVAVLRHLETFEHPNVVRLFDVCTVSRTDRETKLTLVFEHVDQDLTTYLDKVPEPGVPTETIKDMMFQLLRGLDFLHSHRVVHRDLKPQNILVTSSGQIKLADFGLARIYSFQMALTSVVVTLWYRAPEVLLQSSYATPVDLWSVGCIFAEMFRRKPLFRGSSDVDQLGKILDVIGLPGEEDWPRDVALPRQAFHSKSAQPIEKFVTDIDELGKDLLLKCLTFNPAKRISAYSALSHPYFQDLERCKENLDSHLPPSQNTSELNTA
T3 sequence (P30281 whole entry partner): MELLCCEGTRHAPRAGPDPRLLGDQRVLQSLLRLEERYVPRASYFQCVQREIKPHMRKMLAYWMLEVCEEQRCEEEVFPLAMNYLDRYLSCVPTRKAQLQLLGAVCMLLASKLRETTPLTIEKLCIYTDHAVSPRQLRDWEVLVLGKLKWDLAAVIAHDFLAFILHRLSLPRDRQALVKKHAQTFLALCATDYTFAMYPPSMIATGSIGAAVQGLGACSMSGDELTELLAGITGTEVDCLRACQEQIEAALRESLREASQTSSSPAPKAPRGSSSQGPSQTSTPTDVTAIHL
T6 sequence (P50613 whole entry): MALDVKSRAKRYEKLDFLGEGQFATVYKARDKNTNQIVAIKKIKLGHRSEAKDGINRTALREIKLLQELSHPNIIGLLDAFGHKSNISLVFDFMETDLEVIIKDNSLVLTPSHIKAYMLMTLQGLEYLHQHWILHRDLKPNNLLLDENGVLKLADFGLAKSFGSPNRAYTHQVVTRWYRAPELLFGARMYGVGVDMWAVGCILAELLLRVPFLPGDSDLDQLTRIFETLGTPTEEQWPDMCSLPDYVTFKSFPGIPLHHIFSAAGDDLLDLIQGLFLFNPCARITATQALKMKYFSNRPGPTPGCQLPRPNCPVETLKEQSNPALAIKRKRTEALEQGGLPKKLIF
T6 sequence (P51946 whole entry partner): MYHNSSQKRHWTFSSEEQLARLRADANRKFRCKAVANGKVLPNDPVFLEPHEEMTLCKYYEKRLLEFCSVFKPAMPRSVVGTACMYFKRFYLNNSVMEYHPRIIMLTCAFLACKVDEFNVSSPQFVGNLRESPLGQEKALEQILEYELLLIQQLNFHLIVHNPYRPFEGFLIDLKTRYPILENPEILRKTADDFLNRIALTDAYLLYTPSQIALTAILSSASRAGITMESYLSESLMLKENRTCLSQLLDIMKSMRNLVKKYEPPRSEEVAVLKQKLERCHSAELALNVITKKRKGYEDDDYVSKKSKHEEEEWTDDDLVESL
T6 sequence (P51948 whole entry partner): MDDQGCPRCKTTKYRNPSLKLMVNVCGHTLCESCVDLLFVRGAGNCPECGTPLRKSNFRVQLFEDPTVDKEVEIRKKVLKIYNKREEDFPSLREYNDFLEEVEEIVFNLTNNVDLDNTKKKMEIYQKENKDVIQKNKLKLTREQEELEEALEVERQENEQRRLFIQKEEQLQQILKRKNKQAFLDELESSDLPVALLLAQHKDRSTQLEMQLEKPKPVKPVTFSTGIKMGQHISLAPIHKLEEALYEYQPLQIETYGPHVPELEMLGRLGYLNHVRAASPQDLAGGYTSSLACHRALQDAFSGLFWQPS
T1 sequence (P50750 whole entry): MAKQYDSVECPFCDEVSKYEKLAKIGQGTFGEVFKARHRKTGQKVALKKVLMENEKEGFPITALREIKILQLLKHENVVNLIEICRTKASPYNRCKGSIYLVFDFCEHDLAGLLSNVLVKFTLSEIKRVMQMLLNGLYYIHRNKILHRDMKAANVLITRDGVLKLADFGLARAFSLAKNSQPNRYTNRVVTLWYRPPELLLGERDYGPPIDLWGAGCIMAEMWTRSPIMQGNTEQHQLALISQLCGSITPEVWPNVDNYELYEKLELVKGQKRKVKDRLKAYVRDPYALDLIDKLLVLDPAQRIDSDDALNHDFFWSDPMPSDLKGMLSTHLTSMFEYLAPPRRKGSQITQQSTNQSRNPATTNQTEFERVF
T1 sequence (O60563 whole entry partner): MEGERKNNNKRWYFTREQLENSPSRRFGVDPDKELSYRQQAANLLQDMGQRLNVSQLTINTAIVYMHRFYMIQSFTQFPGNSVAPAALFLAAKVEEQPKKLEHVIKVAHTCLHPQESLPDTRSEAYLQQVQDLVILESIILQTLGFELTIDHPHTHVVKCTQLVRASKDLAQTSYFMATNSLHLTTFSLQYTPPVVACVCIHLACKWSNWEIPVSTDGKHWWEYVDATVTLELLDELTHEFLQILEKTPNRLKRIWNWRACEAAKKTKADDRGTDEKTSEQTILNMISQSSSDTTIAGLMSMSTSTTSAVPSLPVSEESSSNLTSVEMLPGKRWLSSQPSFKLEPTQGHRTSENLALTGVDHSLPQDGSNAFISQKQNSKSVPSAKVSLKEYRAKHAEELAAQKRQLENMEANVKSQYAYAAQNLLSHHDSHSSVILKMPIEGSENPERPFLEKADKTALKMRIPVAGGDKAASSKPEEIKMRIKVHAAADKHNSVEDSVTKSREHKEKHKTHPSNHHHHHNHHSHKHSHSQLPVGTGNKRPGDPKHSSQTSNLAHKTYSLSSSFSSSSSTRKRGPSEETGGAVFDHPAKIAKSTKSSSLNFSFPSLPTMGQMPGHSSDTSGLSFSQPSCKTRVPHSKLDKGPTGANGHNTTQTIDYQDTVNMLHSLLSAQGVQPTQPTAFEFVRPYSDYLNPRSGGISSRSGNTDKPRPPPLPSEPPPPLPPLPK
T2 sequence (P06493 whole entry): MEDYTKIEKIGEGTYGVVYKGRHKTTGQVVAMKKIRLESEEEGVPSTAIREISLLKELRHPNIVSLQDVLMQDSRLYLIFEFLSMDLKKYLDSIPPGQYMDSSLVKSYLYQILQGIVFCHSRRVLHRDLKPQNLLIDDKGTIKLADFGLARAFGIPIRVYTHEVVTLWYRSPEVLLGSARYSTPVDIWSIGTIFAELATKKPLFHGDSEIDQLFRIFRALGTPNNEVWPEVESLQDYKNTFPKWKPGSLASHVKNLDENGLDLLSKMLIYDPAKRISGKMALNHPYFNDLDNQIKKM
T2 sequence (P14635 whole entry partner): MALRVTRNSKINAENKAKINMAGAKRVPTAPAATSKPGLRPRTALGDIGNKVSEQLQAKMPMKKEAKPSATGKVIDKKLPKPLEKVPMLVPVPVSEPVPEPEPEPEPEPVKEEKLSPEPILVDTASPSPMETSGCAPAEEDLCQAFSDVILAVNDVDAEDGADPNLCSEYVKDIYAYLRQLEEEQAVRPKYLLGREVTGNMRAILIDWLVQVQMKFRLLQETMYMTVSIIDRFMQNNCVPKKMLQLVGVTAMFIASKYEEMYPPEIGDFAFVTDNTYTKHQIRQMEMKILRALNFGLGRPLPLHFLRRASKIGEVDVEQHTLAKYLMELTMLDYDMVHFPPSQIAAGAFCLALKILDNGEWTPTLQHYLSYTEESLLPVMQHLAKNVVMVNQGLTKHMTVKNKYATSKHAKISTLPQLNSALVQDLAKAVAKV
T4 sequence (Q00535 whole entry): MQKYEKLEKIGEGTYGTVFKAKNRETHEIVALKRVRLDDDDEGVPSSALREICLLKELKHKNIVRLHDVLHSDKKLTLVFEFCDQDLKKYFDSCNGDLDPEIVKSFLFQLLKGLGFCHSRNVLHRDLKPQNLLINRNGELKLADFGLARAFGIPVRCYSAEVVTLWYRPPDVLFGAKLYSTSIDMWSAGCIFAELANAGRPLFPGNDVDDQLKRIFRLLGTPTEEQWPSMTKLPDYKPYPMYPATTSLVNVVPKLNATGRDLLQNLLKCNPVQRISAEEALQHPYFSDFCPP
T4 sequence (Q15078 2-307 partner limits assumed): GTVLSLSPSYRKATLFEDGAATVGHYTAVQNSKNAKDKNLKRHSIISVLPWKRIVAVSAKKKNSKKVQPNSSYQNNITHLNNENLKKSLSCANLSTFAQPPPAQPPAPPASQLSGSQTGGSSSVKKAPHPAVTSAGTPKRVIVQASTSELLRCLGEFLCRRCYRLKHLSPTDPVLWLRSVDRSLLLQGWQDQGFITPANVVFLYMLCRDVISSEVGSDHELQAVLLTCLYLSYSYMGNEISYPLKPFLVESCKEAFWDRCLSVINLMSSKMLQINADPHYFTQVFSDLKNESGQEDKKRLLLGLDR
T5 sequence (Q00535 whole entry): as the sequence (Q00535 whole entry) above
T5 sequence (Q15078 99-307 partner limits assumed): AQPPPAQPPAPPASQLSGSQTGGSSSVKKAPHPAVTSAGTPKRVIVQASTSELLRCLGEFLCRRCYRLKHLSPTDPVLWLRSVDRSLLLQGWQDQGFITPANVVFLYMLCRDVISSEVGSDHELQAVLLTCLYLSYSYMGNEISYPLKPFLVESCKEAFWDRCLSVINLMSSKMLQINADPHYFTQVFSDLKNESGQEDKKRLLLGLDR

In the case of `CC(C)N1CCN(c2ccc(Nc3ncc4cc5n(c4n3)C3(CCCCC3)CNC5=O)nc2)CC1` [Lerociclib, lerociclib, reference compound], the IC50 in data set [1] amounted to 1420 nM.

`COCc1cc(C(=O)Nc2cc([C@H]3CC[C@@H](OC(=O)NC(C)C)C3)[nH]n2)n(C)n1` [PF-07104091, reference compound]: the IC50 in [2] was 125 nM; with MCF7 Fulv-resistant it was 508 nM; with MCF7 Abema-resistant, 41.8 nM; in the data set on MCF7 Parent (Parent in DMSO) it was 562 nM; in the data set on MCF7 Parent (Parent+Abema: 500 nM abemaciclib concurrently), 232 nM; at CDK9/cyclin T1 [3], greater than 10000 nM. Also, the IC50 at CDK1/cyclin B1 [4] is 1180 nM; at CDK6/cyclin D3 (Supp Fig S1C, read-out: IC50 (nM) CDK6/cyclin D3) it was greater than 1000 nM; at CDK9/cyclin T1 [5] (Supp Fig S1C, read-out: IC50 (nM) CDK9/cyclin T1), 363 nM; at CDK1/cyclin B1 [6] (Supp Fig S1C, read-out: IC50 (nM) CDK1/B1) it was 65.8 nM.

Consider `CN1CCN(c2ccc(Nc3ncc4cc5n(c4n3)C3(CCCCC3)CNC5=O)nc2)CC1` [Trilaciclib, reference compound], for which the half-life at 1 µmol/L is greater than 60 min in [7] (setting [8]); 66 min in [7] (both sexes, human, liver microsomes, longer than the duration of the experiment, read-out: calculated half-life (in parenthesis)); 28 min in data set [7] (setting [9]); greater than 60 min in [7] (setting [10]); 73 min in [7] (male, Sprague-Dawley, rat, liver microsomes, longer than the duration of the experiment, read-out: calculated half-life (in parenthesis)); 5 min in data set [7] (setting [11]). The IC50 at CDK5 was 1240 nmol/L; at CDK5/p25 it was 1710 nmol/L; on CDK7, 4640 nmol/L.

Take `C[C@@H]1NC(=O)C2(CCCCC2)n2c1cc1cnc(Nc3ccc(S(N)(=O)=O)cc3)nc12` [Compound C]: the half-life at 1 µmol/L in data set [7] (setting [8]) was 15.3 min; in data set [7] (setting [9]) it was less than 10 min; in data set [7] (setting [10]), less than 10 min; in data set [7] (setting [11]) it was 23.4 min. The IC50 on CDK2/cyclin A2 is 4 nmol/L; at CDK5 it was 50.2 nmol/L; on CDK2/cyclin E1, 5 nmol/L; at CDK7 it was 796 nmol/L; at CDK6/cyclin D3 (setting [12]) it was 214 nM; on CDK1/cyclin B1 [6] (setting [13]) it was 41 nM.

For the molecule `NS(=O)(=O)c1ccc(Nc2ncc3cc4n(c3n2)C2(CCCCC2)CN=C4)cc1` [Compound B], the half-life at 1 µmol/L in [7] (setting [8]), in [7] (setting [9]), in data set [7] (setting [10]) and in [7] (setting [11]) was less than 10 min in each case. For the same molecule, the IC50 on CDK2/cyclin A2 was found to be 0.1 nmol/L; at CDK5, 0.5 nmol/L; at CDK2/cyclin E1, 0.1 nmol/L; on CDK4/cyclin D1 it was 3.6 nmol/L; at CDK5/p25, 0.4 nmol/L; at CDK7 it was 33.5 nmol/L. Also, the IC50 at CDK6/cyclin D3 (setting [12]) came to 8.6 nM; on CDK3/cyclin E1, 0.5 nmol/L; on CDK9/cyclin T1 [5] (ATP at Km, read-out: IC50 (nmol/L) CDK9/cyclin T1), 1.6 nM; on CDK1/cyclin B1 [6] (setting [13]) it was 1.2 nM.

A word on the half-life: it is how long it takes for the measured level to halve.
